Test results published in article PMC9713482, “Discovery of (R)-2-amino-3-triazolpropanoic acid derivatives as NMDA receptor glycine site agonists with GluN2 subunit-specific activity” (Frontiers in Chemistry, 2022).

Experiments:
Test in all cases: cell-based
[1] = biological target: T1, GluN1/2D (Rattus norvegicus, UniProt P35439); set-up: species or system Xenopus laevis oocytes; two-electrode voltage-clamp recording of NMDA receptor agonist responses with 300 uM glutamate, relative to maximal glycine response; conditions: Oocyte; 300 uM glutamate; read-out: % activation
T1 construct: gene Grin1; full-length subunits co-expressed from cRNA (1:2) in Xenopus laevis oocytes; heterotetramer; with Glutamate receptor ionotropic, NMDA 2D
Procedure: (§1) Oocytes were injected with cRNAs for GluN1 and GluN2 subunits at a 1:2 ratio, and incubated as previously described ([Hansen et al., 2013]). The injected oocytes were used for two-electrode voltage-clamp recordings at room temperature (21–23°C) after 2–4 days of expression. as previously described ([Hansen et al., 2013]). The holding potential was −40 mV in all recordings. The recording solution was comprised of (in mM) 90 NaCl, 1 KCl, 10 HEPES, 0.5 BaCl2 and 0.01 EDTA (pH 7.4). For experiments with GluN1/2A or GluN1/2B receptors, the oocytes were injected at least 10 min before recordings with 50 mM BAPTA (30–50 nL) to minimize use-dependent increases in response amplitudes ([Williams, 1993]). Compounds were dissolved as 20–100 mM stock solutions in DMSO, and DMSO concentrations were constant in all recording solutions and never exceeded 1%. GraphPad Prism (GraphPad Software, La Jolla, CA) was used to analyze agonist concentration-response data. Briefly, the data for each oocyte were fitted to the following Hill equation, I = Rmax/(1 + 10^((logEC50-log [A])*nH)). […] The pharmacological properties of analogues 13a-j and 16 were determined with two-electrode voltage-clamp recordings of responses from recombinant NMDA receptor subtypes (Table 1; Figure 4). Compound 13f was identified as agonist with lower maximal response relative to glycine (Rmax) at GluN1/2A (47%) and GluN1/2B (23%), but Rmax similar to glycine at GluN1/2C (94%) and GluN1/2D (96%).

[2] = biological target: T2, GluN1/2B (Rattus norvegicus, UniProt P35439); set-up: species or system Xenopus laevis oocytes; two-electrode voltage-clamp recording of NMDA receptor agonist responses with 300 uM glutamate, relative to maximal glycine response; conditions: Oocyte; 300 uM glutamate; read-out: % activation
T2 construct: gene Grin1; full-length subunits co-expressed from cRNA (1:2) in Xenopus laevis oocytes; GluN2B ORF altered only silently; heterotetramer; with Glutamate receptor ionotropic, NMDA 2B
Procedure: as §1

[3] = biological target: T3, GluN1/2C (Rattus norvegicus, UniProt P35439); set-up: species or system Xenopus laevis oocytes; two-electrode voltage-clamp recording of NMDA receptor agonist responses with 300 uM glutamate, relative to maximal glycine response; conditions: Oocyte; 300 uM glutamate; read-out: % activation
T3 construct: gene Grin1; full-length subunits co-expressed from cRNA (1:2) in Xenopus laevis oocytes; heterotetramer (human Q14957 was used only for modelling); with Glutamate receptor ionotropic, NMDA 2C
Procedure: as §1

[4] = biological target: T1, GluN1/2D; set-up: species or system Xenopus laevis oocytes; Two-electrode voltage-clamp concentration-response of glycine-site agonists with saturating glutamate; efficacy relative to 100 uM glycine; conditions: Oocyte; fitted maximum relative to 100 uM glycine, saturating glutamate; read-out: Rel. efficacy (%) / 100 / 92.671
Excerpt: (§2) For expression in Xenopus laevis oocytes purchased from Rob Weymouth (Xenopus 1, Dexter, MI), cDNAs encoding rat NMDA receptor subunits, GluN1-1a (Genbank accession number U11418 and U08261), GluN2A (D13211), GluN2B (U11419), GluN2C (M91563), and GluN2D (L31611), were used to produce cRNAs using the mMessage mMachine kit (Ambion, Life Technologies, Paisley, United Kingdom) according to the manufacturer’s protocol. The open reading frame of the GluN2B subunit was altered without changing the amino acid sequence to remove a termination site for the T7 RNA polymerase used to synthesize cRNA ([Hansen et al., 2014]). Oocytes were injected with cRNAs for GluN1 and GluN2 subunits at a 1:2 ratio, and incubated as previously described ([Hansen et al., 2013]). The injected oocytes were used for two-electrode […] recordings at room temperature (21–23°C) after 2–4 days of expression. as previously described ([Hansen et al., 2013]). The holding potential was −40 mV in all recordings. The recording solution was comprised of (in mM) 90 NaCl, 1 KCl, 10 HEPES, 0.5 BaCl2 and 0.01 EDTA (pH 7.4). For experiments with GluN1/2A or GluN1/2B receptors, the oocytes were injected at least 10 min before recordings with 50 mM BAPTA (30–50 nL) to minimize use-dependent increases in response amplitudes ([Williams, 1993]). Compounds were dissolved as 20–100 mM stock solutions in DMSO, and DMSO concentrations were constant in all recording solutions and never exceeded 1%. GraphPad Prism (GraphPad Software, La Jolla, CA) was used to analyze agonist concentration-response data. Briefly, the data for each oocyte were fitted to the following Hill equation, I = Rmax/(1 + 10^((logEC50-log [A])*nH)).

[5] = biological target: T2, GluN1/2B; set-up: species or system Xenopus laevis oocytes; Two-electrode voltage-clamp concentration-response of glycine-site agonists with saturating glutamate; efficacy relative to 100 uM glycine; conditions: Oocyte; fitted maximum relative to 100 uM glycine, saturating glutamate; read-out: Rel. efficacy (%) / 100 / 100.0775
Excerpt: as §2

[6] = biological target: T3, GluN1/2C; set-up: species or system Xenopus laevis oocytes; Two-electrode voltage-clamp concentration-response of glycine-site agonists with saturating glutamate; efficacy relative to 100 uM glycine; conditions: Oocyte; fitted maximum relative to 100 uM glycine, saturating glutamate; read-out: Rel. efficacy (%) / 100 / 111.08
Excerpt: as §2

[7] = biological target: T4, GluN1/2A (Rattus norvegicus, UniProt P35439); set-up: species or system Xenopus laevis oocytes; Two-electrode voltage-clamp concentration-response of glycine-site agonists with saturating glutamate; efficacy relative to 100 uM glycine; conditions: Oocyte; fitted maximum relative to 100 uM glycine, saturating glutamate; read-out: Rel. efficacy (%) / 99.6672727273 / 96.0542857143
T4 construct: gene Grin1; full-length subunits co-expressed from cRNA (GluN1:GluN2 1:2) in Xenopus laevis oocytes; heterotetramer; glycine site in GluN1; with Glutamate receptor ionotropic, NMDA 2A
Excerpt: as §2

Row | Emax [4] | Emax [5] | Emax [6] | Emax [7] | SMILES | activity at 100 µM [1] | activity at 100 µM [2] | activity at 100 µM [3]
1 |  |  |  |  | N[C@H](Cn1cc(CCO)nn1)C(=O)O [13a, (R)-2-Amino-3-(4-(2-hydroxyethyl)-1H-1,2,3-triazol-1-yl)propanoic acid] | 34% | 6.2% | 22%
2 |  |  |  |  | CCCCc1cn(C[C@@H](N)C(=O)O)nn1 [13b, (R)-2-Amino-3-(4-butyl-1H-1,2,3-triazol-1-yl)propanoic acid] | 32% | 9.2% | 27%
3 |  |  |  |  | N[C@H](Cn1cc(Cc2ccccc2)nn1)C(=O)O [13c, (R)-2-Amino-3-(4-benzyl-1H-1,2,3-triazol-1-yl)propanoic acid] | 5.9% |  | 12%
4 | 96.5% | 22.8% | 93.9% | 47.3% | Nc1ccc(-c2cn(C[C@@H](N)C(=O)O)nn2)cc1 [13f, (R)-2-Amino-3-(4-(4-aminophenyl)-1H-1,2,3-triazol-1-yl)propanoic acid] |  |  | 
5 | 87.5% | 55.7% | 96.9% | 65.5% | N[C@H](Cn1cc(-c2cccnc2)nn1)C(=O)O [13g, (R)-2-Amino-3-(4-(pyridin-3-yl)-1H-1,2,3-triazol-1-yl)propanoic acid] |  |  | 
6 | 81.8% | 46.3% | 81.9% | 56.4% | N[C@H](Cn1cc(-c2ccsc2)nn1)C(=O)O [13i, (R)-2-Amino-3-(4-(thiophen-3-yl)-1H-1,2,3-triazol-1-yl)propanoic acid] |  |  | 
